Reference: US20250320252A1 (The Scripps Research Institute, priority 2021, published 2025)
Like-named read-outs stand apart in the source and are kept apart here.

How the values were obtained:
human GIPR = biological target: T1, human GIPR (Homo sapiens, UniProt P48546); test: In vitro receptor activation reporter assay (CRE-Luc), HEK293-GIPR-CRE; type: cell-based
T1 construct: expressed in transfected cells
T1 sequence (P48546 22-466): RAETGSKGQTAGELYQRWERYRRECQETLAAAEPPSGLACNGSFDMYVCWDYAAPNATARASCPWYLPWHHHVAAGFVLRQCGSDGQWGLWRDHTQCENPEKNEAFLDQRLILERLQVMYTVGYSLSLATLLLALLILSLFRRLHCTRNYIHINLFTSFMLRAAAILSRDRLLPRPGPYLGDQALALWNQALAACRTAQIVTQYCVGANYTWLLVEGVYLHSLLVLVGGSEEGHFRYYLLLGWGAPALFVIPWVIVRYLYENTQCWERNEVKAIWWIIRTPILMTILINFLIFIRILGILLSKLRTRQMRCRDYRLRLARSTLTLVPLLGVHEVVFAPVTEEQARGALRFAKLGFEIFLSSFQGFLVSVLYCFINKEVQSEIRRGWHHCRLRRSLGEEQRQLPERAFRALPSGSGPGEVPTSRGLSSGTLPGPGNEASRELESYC
Source text: HEK293 cells were infected with lentivirus encoding firefly luciferase gene under the control of cAMP responsive element (CRE) promoter (Qiagen, The Netherlands) and then were selected using 1 g mL^−1 puromycin (Life Technologies, Carlsbad) for 1 week. The surviving cells (referred to as CRE-HEK293) were expanded and then transfected with a G418 selective mammalian expression plasmid encoding human GLP-1R or GIPR. In brief, GLP-1R or GIPR plasmid was transfected into CRE-HEK293 cells using Lipofectamine 2000 and selected with 400 g mL^−1 Geneticin (Life Technologies, Carlsbad, CA). Single colony stable cell line overexpressing CRE-luciferase and GLP-1R or GIPR (HEK293-GLP-1R-CRE or HEK293-GIPR-CRE) was then established for in vitro activity assay.
(§1) The EC50 of each peptide was determined using GraphPad Prism 6 software (GraphPad, San Diego, CA).

human GLP-1R = biological target: T2, human GLP-1R (Homo sapiens, UniProt P43220); test: In vitro receptor activation reporter assay (CRE-Luc), HEK293-GLP-1R-CRE; type: cell-based
T2 construct: expressed in transfected cells
T2 sequence (P43220 24-463): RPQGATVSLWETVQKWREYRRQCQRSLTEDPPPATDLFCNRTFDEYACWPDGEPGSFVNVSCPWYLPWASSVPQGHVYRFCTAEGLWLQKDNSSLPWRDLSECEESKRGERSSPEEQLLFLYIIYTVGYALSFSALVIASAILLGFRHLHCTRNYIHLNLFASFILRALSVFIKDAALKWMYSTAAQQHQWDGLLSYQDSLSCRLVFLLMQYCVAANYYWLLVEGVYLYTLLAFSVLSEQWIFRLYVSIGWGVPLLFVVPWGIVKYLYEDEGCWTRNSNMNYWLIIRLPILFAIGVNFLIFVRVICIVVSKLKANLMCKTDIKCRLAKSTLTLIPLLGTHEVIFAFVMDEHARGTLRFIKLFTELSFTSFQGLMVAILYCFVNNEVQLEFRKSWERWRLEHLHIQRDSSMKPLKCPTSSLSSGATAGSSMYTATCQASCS
Procedure: as §1
HEK293 cells were infected with lentivirus encoding firefly luciferase gene under the control of cAMP responsive element (CRE) promoter (Qiagen, The Netherlands) and then were selected using 1 g/mL puromycin (Life Technologies, Carlsbad) for 1 week. The surviving cells (referred to as CRE-HEK293) were expanded and then transfected with a G418 selective mammalian expression plasmid encoding human GLP-1R. In brief, GLP-1R plasmid was transfected into CRE-HEK293 cells using Lipofectamine 2000 and selected with 400 g/mL Geneticin (Life Technologies, Carlsbad, CA). Single colony stable cell line overexpressing CRE-luciferase and GLP1R was then established for in vitro activity assay.

[1] = unnumbered table (Table 10), average of runs, read-out: GIPR (nM) [EC50] average
[2] = unnumbered table (Table 10), run 02/19, read-out: GIPR (nM) [EC50] 02/19
[3] = unnumbered table (Table 10), run 03/25, read-out: GIPR (nM) [EC50] 03/25
[4] = unnumbered table (Table 10), run 03/26, read-out: GIPR (nM) [EC50] 03/26

Row | Structure (SMILES) | EC50 (human GIPR; Table 8, read-out: EC50 [nM] GIPR) [nM] | EC50 (human GIPR; [1]) [nM] | EC50 (human GIPR; [2]) [nM] | EC50 (human GIPR; [3]) [nM] | EC50 (human GIPR; [4]) [nM] | EC50 (human GLP-1R; Table 8, read-out: EC50 [nM] GLP1R) [nM] | EC50 (human GIPR; Table 9, read-out: EC50 [nM] GIPR) [nM] | EC50 (human GLP-1R; Table 9, read-out: EC50 [nM] GLP1R) [nM] | EC50 (human GLP-1R; unnumbered table (Table 10), average of runs, read-out: GLP1R (nM) [EC50] average) [nM] | EC50 (human GLP-1R; unnumbered table (Table 10), run 02/19, read-out: GLP1R (nM) [EC50] 02/19) [nM] | EC50 (human GLP-1R; unnumbered table (Table 10), run 3/25, read-out: GLP1R (nM) [EC50] 3/25) [nM] | EC50 (human GLP-1R; unnumbered table (Table 10), run 03/26, read-out: GLP1R (nM) [EC50] 03/26) [nM]
1 | CC[C@H](C)[C@H](NC(=O)[C@H](CO)NC(=O)[C@H](Cc1ccc(O)cc1)NC(=O)[C@H](CC(=O)O)NC(=O)[C@H](CO)NC(=O)[C@@H](NC(=O)[C@H](Cc1ccccc1)NC(=O)[C@@H](NC(=O)CNC(=O)[C@H](CCC(=O)O)NC(=O)C(C)(C)NC(=O)[C@@H](N)Cc1ccc(O)cc1)[C@@H](C)O)[C@@H](C)O)C(=O)N[C@@H](Cc1ccc(O)cc1)C(=O)N[C@H]1CSCC(=O)NCCN(C(=O)CCC(=O)NCCOCCOCCC(=O)NCCOCCOCCC(=O)NCCCC[C@H](NC(=O)CCCCCCCCCCCCCCCCCCC(=O)O)C(=O)O)CCNC(=O)CSC[C@@H](C(=O)N[C@@H](Cc2ccccc2)C(=O)N[C@H](C(=O)N[C@@H](CC(N)=O)C(=O)N[C@@H](Cc2c[nH]c3ccccc23)C(=O)N[C@@H](CC(C)C)C(=O)N[C@@H](CC(C)C)C(=O)N[C@@H](C)C(=O)NCC(=O)NCC(=O)N2CCC[C@H]2C(=O)N[C@@H](CO)C(=O)N[C@@H](CO)C(=O)NCC(=O)N[C@@H](C)C(=O)N2CCC[C@H]2C(=O)N2CCC[C@H]2C(=O)N2CCC[C@H]2C(=O)N[C@@H](CO)C(N)=O)C(C)C)NC(=O)C(C)(C)NC(=O)[C@H](C)NC(=O)[C@H](C)NC(=O)[C@H](CCC(N)=O)NC(=O)[C@H](CCCCN)NC(=O)[C@H](CC(=O)O)NC1=O [C(14-21) - C20L5A, YAibEGT-FTSDY-SIYXD-KQAAAib-XFVNW-LLAGG-PSSGA-PPPS-NH2 (where each X is C)] | 0.05 | 0.05 | 0.07 | 0.04 | 0.04 | 0.2 | – | – | – | – | – | –
2 | CC[C@H](C)[C@H](NC(=O)[C@H](CO)NC(=O)[C@H](Cc1ccc(O)cc1)NC(=O)[C@H](CC(=O)O)NC(=O)[C@H](CO)NC(=O)[C@@H](NC(=O)[C@H](Cc1ccccc1)NC(=O)[C@@H](NC(=O)CNC(=O)[C@H](CCC(=O)O)NC(=O)C(C)(C)NC(=O)[C@@H](N)Cc1ccc(O)cc1)[C@@H](C)O)[C@@H](C)O)C(=O)N[C@@H](Cc1ccc(O)cc1)C(=O)N[C@@H](CC(C)C)C(=O)N[C@@H](CC(=O)O)C(=O)N[C@@H](CCCCN)C(=O)N[C@H]1CSCC(=O)NCCN(C(=O)CCC(=O)NCCOCCOCCC(=O)NCCOCCOCCC(=O)NCCCC[C@H](NC(=O)CCCCCCCCCCCCCCCCCCC(=O)O)C(=O)O)CCNC(=O)CSC[C@@H](C(=O)N[C@@H](Cc2c[nH]c3ccccc23)C(=O)N[C@@H](CC(C)C)C(=O)N[C@@H](CC(C)C)C(=O)N[C@@H](C)C(=O)NCC(=O)NCC(=O)N2CCC[C@H]2C(=O)N[C@@H](CO)C(=O)N[C@@H](CO)C(=O)NCC(=O)N[C@@H](C)C(=O)N2CCC[C@H]2C(=O)N2CCC[C@H]2C(=O)N2CCC[C@H]2C(=O)N[C@@H](CO)C(N)=O)NC(=O)[C@H](C(C)C)NC(=O)[C@H](Cc2ccccc2)NC(=O)[C@H](CCC(=O)O)NC(=O)C(C)(C)NC(=O)[C@H](C)NC(=O)[C@H](C)NC1=O [C(17-24) - C20L5A, YAibEGT-FTSDY-SIYLD-KXAAAib-EFVXW-LLAGG-PSSGA-PPPS-NH2 (where each X is C)] | – | 0.03 | 0.04 | 0.02 | 0.03 | – | 0.05 | 0.11 | 0.09 | 0.07 | 0.1 | 0.09
